For 48 compounds, IC50 results are on record in ChEMBL document CHEMBL5727836, “Treatment of infectious diseases with glucose uptake inhibitors” (2020).

A word on the IC50: it is the midpoint of a concentration-inhibition curve.

The nature of the assay: ATP Assay: HT1080 cells (as well as other cell types) were plated to confluency in 96-well plates. Cells were exposed to the combination of 10 μM Oligomycin (to block mitochondrial-derived ATP), and the glucose uptake inhibitor compounds for one-hour, after which glycolytically-dervied ATP was measured with the Cell Titer-Glo assay kit (Promega). Dose-response curves of the glucose uptake inhibitor compounds were used to determine the IC50 for GLUT activity. To be noted: HT-1080, 1 h. (ATP-based viability assays read luminescence as a measure of living cells.)
As to `O=C(CN1CCOCC1)Nc1cccc(-c2nc(Nc3ccc(-c4cn[nH]c4)cc3)c3ccsc3n2)c1`, the IC50 entry was “in the range around 175 nM”.
Consider `CC(=O)N1Cc2nc(-c3cccc(OCC(=O)NC(C)C)c3)nc(Nc3ccc(-c4cn[nH]c4)cc3)c2C1`, for which the IC50 result is “in the range around 175 nM”.
Take `CCC(CC)NC(=O)COc1cccc(-c2nc3c(c(Nc4ccc(-c5cn[nH]c5)cc4)n2)CN(C(C)=O)CC3)c1`: the half-maximal inhibitory concentration (IC50) entry was “in the range around 55 nM”.
To `CC(C)CNC(=O)COc1cccc(-c2nc3c(c(Nc4ccc(-c5cn[nH]c5)cc4)n2)COCC3)c1` belongs “in the range around 55 nM”; to `CC(C)CNC(=O)COc1cccc(-c2nc(Nc3ccc(-c4cn[nH]c4)cc3)c3ncccc3n2)c1`, “in the range around 175 nM”.
To `CCC(CC)NC(=O)COc1cccc(-c2nc3c(c(Nc4ccc(-c5cn[nH]c5)cc4)n2)CN(C(C)=O)C3)c1` belongs “in the range around 55 nM”.
Turning to `Cn1cnc2c(Nc3ccc(-c4cn[nH]c4)cc3)nc(-c3cccc(OCC(=O)NC4CCC4)c3)nc21`, the IC50 result is “in the range around 375 nM”.
For `Cn1ncc2c(Nc3ccc(-c4cn[nH]c4)cc3)nc(-c3cccc(OCC(=O)NC4CCCC4)c3)nc21`, the IC50 result is “in the range around 175 nM”.
Turning to `CC(=O)N1CCc2nc(-c3cccc(OCC(=O)NC4CCCC4)c3)nc(Nc3ccc(-c4cn[nH]c4)cc3)c2C1`, the IC50 result was “in the range around 55 nM”.
In the case of `O=C(COc1cccc(-c2nc(Nc3ccc(-c4cn[nH]c4)cc3)c3ncsc3n2)c1)NC1CCCC1`, the IC50 entry was “in the range around 175 nM”.
In the case of `O=C(COc1cccc(-c2nc(Nc3ccc(-c4cn[nH]c4)cc3)c3sccc3n2)c1)NC1CCCC1`, the half-inhibitory concentration (IC50) entry is “in the range around 55 nM”.
Take `CC(C)CNC(=O)COc1cccc(-c2nc3c(c(Nc4ccc(-c5cn[nH]c5)cc4)n2)COC3)c1`: the IC50 entry was “in the range around 55 nM”.
`O=C(COc1cccc(-c2nc(Nc3ccc(-c4cn[nH]c4)cc3)c3occc3n2)c1)NC1CCCC1`: the 50% inhibitory concentration (IC50) result is “in the range around 375 nM”.
With `CC(C)NC(=O)COc1cccc(-c2nc3c(c(Nc4ccc(-c5cn[nH]c5)cc4)n2)CSC3)c1` the entry was “in the range around 375 nM”; with `CC(C)NC(=O)COc1cccc(-c2nc(Nc3ccc(-c4cn[nH]c4)cc3)c3cnccc3n2)c1`, “in the range around 55 nM”.
To `CC(C)NC(=O)COc1cccc(-c2nc3c(c(Nc4ccc(-c5cn[nH]c5)cc4)n2)COCC3)c1` belongs “in the range around 55 nM”; to `CCC(C)NC(=O)COc1cccc(-c2nc3c(c(Nc4ccc(-c5cn[nH]c5)cc4)n2)COC3)c1` (stereo not drawn), “in the range around 55 nM”; to `CC(C)(C)NC(=O)COc1cccc(-c2nc(Nc3ccc(-c4cn[nH]c4)cc3)c3cnccc3n2)c1`, “in the range around 55 nM”.
For the compound `CC(C)NC(=O)COc1cccc(-c2nc(Nc3ccc(-c4cn[nH]c4)cc3)c3ncsc3n2)c1`, the IC50 result is “in the range around 375 nM”.
As for `CC(C)(C)CNC(=O)COc1cccc(-c2nc3c(c(Nc4ccc(-c5cn[nH]c5)cc4)n2)COC3)c1`, the IC50 result is “in the range around 55 nM”.
With `CC(C)(C)NC(=O)COc1cccc(-c2nc3c(c(Nc4ccc(-c5cn[nH]c5)cc4)n2)COC3)c1` the entry was “in the range around 55 nM”; with `O=C(COc1cccc(-c2nc3c(c(Nc4ccc(-c5cn[nH]c5)cc4)n2)COCC3)c1)NC1CCC1`, “in the range around 55 nM”.
As for `Cn1ncc2c(Nc3ccc(-c4cn[nH]c4)cc3)nc(-c3cccc(OCC(=O)NC4CCC4)c3)nc21`, the 50% inhibitory concentration (IC50) result was “in the range around 375 nM”.
On to `CC(C)NC(=O)COc1cccc(-c2nc(Nc3ccc(-c4cn[nH]c4)cc3)c3ccncc3n2)c1`, for which the half-maximal inhibitory concentration (IC50) result is “in the range around 55 nM”.
In the case of `O=C(COc1cccc(-c2nc(Nc3ccc(-c4cn[nH]c4)cc3)c3sccc3n2)c1)NC1CCC1`, the half-maximal inhibitory concentration (IC50) entry was “in the range around 175 nM”.
With `O=C(COc1cccc(-c2nc(Nc3ccc(-c4cn[nH]c4)cc3)c3sccc3n2)c1)NC1CC1`, the IC50 is 750 nM.
As to `CC(C)NC(=O)COc1cccc(-c2nc(Nc3ccc(-c4cn[nH]c4)cc3)c3cnn(C)c3n2)c1`, the IC50 entry is “in the range around 375 nM”.
Turning to `CC(C)CNC(=O)COc1cccc(-c2nc(Nc3ccc(-c4cn[nH]c4)cc3)c3cnn(C)c3n2)c1`, the IC50 result was “in the range around 175 nM”.
To `CCC(C)NC(=O)COc1cccc(-c2nc3c(c(Nc4ccc(-c5cn[nH]c5)cc4)n2)COCC3)c1` (stereo not drawn) belongs “in the range around 55 nM”.
To `CC(C)(C)NC(=O)COc1cccc(-c2nc(Nc3ccc(-c4cn[nH]c4)cc3)c3sccc3n2)c1` belongs “in the range around 175 nM”; to `O=C(COc1cccc(-c2nc(Nc3ccc(-c4cn[nH]c4)cc3)c3ncsc3n2)c1)NC1CCC1`, “in the range around 375 nM”; to `CC(C)NC(=O)COc1cccc(-c2nc(Nc3ccc4[nH]ncc4c3)c3sccc3n2)c1`, “in the range around 55 nM”.
Take `O=C(COc1cccc(-c2nc(Nc3ccc(-c4cn[nH]c4)cc3)c3ccncc3n2)c1)NC1CCC1`: the 50% inhibitory concentration (IC50) entry is “in the range around 55 nM”.
Take `O=C(COc1cccc(-c2nc3c(c(Nc4ccc(-c5cn[nH]c5)cc4)n2)CSC3)c1)NC1CCC1`: the IC50 result is “in the range around 175 nM”.
Take `O=C(COc1cccc(-c2nc3c(c(Nc4ccc(-c5cn[nH]c5)cc4)n2)COCC3)c1)NC1CCCC1`: the IC50 entry is “in the range around 55 nM”.
Regarding `O=C(COc1cccc(-c2nc3c(c(Nc4ccc(-c5cn[nH]c5)cc4)n2)COC3)c1)NC1CC(F)(F)C1`, the half-maximal inhibitory concentration (IC50) result was “in the range around 175 nM”.
Turning to `O=C(COc1cccc(-c2nc(Nc3ccc(-c4cn[nH]c4)cc3)c3occc3n2)c1)NC1CCC1`, the half-inhibitory concentration (IC50) result was “in the range around 375 nM”.
Turning to `CC(=O)N1CCc2nc(-c3cccc(OCC(=O)NC(C)(C)C)c3)nc(Nc3ccc(-c4cn[nH]c4)cc3)c2C1`, the half-maximal inhibitory concentration (IC50) entry is “in the range around 55 nM”.
For `O=C(COc1cccc(-c2nc3c(c(Nc4ccc(-c5cn[nH]c5)cc4)n2)CSC3)c1)NC1CCCC1`, the IC50 result was “in the range around 175 nM”.
`CC(C)NC(=O)COc1cccc(-c2nc3c(c(Nc4ccc(-c5cn[nH]c5)cc4)n2)CN(C(=O)C(C)C)CC3)c1`: the IC50 result is “in the range around 55 nM”.
On to `CC(=O)N1CCc2nc(-c3cccc(OCC(=O)NC(C)C)c3)nc(Nc3ccc(-c4cn[nH]c4)cc3)c2C1`, for which the IC50 result was “in the range around 175 nM”.
With `CCC(CC)NC(=O)COc1cccc(-c2nc3c(c(Nc4ccc(-c5cn[nH]c5)cc4)n2)COC3)c1` the entry was “in the range around 55 nM”.
For `CC(=O)N1Cc2nc(-c3cccc(OCC(=O)NC(C)(C)C)c3)nc(Nc3ccc(-c4cn[nH]c4)cc3)c2C1`, the IC50 result is “in the range around 55 nM”.
Take `CC(C)CNC(=O)COc1cccc(-c2nc(Nc3ccc(-c4cn[nH]c4)cc3)c3ncsc3n2)c1`: the half-maximal inhibitory concentration (IC50) result is “in the range around 375 nM”.
As to `CC(C)(C)CNC(=O)COc1cccc(-c2nc3c(c(Nc4ccc(-c5cn[nH]c5)cc4)n2)COCC3)c1`, the IC50 result is “in the range around 55 nM”.
With `CC(=O)N1CCc2nc(-c3cccc(OCC(=O)NCC(C)C)c3)nc(Nc3ccc(-c4cn[nH]c4)cc3)c2C1` the entry was “in the range around 55 nM”.
As to `O=C(COc1cccc(-c2nc(Nc3ccc(-c4cn[nH]c4)cc3)c3ccncc3n2)c1)NC1CCCC1`, the half-inhibitory concentration (IC50) result was “in the range around 55 nM”.
Turning to `CCC(C)(C)NC(=O)COc1cccc(-c2nc(Nc3ccc(-c4cn[nH]c4)cc3)c3sccc3n2)c1`, the IC50 result was “in the range around 175 nM”.
